The target of assay [1] is D(2) dopamine receptor (Homo sapiens) (UniProt P14416). Kind of assay: Compound was tested for dopamine D2 (spiroperidol) receptor binding affinity, at 5000 nM concentration.
Assay [2] in a line: (§1) Compound was tested for functional dopamine antagonism in normalization assay (i.e. AS: reversal of apomorphine induced swimming ED50s in mg/kg orally). To be noted: po.
Assay [3] addresses D(2) dopamine receptor (Homo sapiens) (UniProt P14416). Kind of assay: Dopamine D2 (spiroperidol) receptor binding affinity.
Assay [4] addresses D(1A) dopamine receptor (Homo sapiens) (UniProt P21728).
Description: Dopamine D1 (SCH-23390) receptor binding affinity
The target of assay [5] is Serotonin 2 (5-HT2) receptor (Homo sapiens) (UniProt P41595+P28223+P28335).
Description: 5-hydroxytryptamine 2 receptor binding affinity
Assay [6] concerns Rattus norvegicus. The assay is described as §1. The settings on record: po.
For assay [7], the target named is D(2) dopamine receptor (Homo sapiens) (UniProt P14416). Kind of assay: Compound was tested for dopamine D2 (spiroperidol) receptor binding affinity; Not active.
For assay [8], the target named is D(1A) dopamine receptor (Homo sapiens) (UniProt P21728). As to the kind of experiment: Compound was tested for dopamine D1 (SCH-23390) receptor binding affinity; Not active.
For assay [9] the target is unchanged. Kind of assay: Compound was tested for dopamine D1 (SCH-23390) receptor binding affinity, at 1000 nM concentration.
For assay [10] the target is unchanged. As to the kind of experiment: Compound was tested for dopamine D1 (SCH-23390) receptor binding affinity, at 2500 nM concentration.
In assay [11] the target is D(2) dopamine receptor (Homo sapiens) (UniProt P14416). As to the kind of experiment: Compound was tested for dopamine D2 (spiroperidol) receptor binding affinity at 2500 nM concentration.

Molecules are shown by their SMILES. Active and inactive are the calls of the source. The calls are words filed in the database; no cut-off is given here. A value given as a limit tells only on which side of the number the result lay.

Sequence of D(2) dopamine receptor (Homo sapiens) (P14416 whole entry): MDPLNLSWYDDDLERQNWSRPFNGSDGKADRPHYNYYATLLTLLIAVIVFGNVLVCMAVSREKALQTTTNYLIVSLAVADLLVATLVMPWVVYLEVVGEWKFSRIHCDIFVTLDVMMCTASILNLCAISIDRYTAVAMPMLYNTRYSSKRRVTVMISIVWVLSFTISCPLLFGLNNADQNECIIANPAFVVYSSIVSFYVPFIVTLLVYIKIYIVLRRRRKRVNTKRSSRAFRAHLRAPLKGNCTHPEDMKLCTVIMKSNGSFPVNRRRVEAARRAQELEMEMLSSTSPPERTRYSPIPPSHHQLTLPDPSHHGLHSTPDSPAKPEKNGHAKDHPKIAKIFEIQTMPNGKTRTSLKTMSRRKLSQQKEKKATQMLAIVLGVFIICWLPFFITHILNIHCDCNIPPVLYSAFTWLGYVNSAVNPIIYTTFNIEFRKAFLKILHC
Sequence of D(1A) dopamine receptor (Homo sapiens) (P21728 whole entry): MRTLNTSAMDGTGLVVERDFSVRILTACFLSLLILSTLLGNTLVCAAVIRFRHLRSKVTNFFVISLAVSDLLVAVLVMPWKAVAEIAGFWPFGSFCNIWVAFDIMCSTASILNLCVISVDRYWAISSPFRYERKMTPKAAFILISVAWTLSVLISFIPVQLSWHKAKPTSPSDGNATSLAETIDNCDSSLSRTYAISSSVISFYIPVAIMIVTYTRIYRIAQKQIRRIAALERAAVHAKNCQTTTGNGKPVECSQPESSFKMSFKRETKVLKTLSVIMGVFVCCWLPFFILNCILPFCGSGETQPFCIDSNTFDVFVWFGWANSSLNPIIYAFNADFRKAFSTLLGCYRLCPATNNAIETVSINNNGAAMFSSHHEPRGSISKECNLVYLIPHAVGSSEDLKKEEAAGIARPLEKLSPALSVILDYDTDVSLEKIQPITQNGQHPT
Sequence of Serotonin 2 (5-HT2) receptor (Homo sapiens) (P28223 whole entry, looked up): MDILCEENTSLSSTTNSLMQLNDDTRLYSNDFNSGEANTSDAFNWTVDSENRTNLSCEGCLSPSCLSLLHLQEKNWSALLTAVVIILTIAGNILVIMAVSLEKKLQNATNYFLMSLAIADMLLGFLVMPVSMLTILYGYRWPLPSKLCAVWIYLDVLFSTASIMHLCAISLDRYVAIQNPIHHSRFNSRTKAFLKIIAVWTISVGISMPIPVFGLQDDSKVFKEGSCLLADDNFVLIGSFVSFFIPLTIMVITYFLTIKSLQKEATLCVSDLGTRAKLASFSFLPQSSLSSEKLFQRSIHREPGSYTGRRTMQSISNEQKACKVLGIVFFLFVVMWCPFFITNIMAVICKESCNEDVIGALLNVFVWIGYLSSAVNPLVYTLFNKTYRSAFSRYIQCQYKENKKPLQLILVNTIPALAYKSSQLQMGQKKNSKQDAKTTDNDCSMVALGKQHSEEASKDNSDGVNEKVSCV
Sequence of Serotonin 2 (5-HT2) receptor (Homo sapiens) (P28335 whole entry, looked up): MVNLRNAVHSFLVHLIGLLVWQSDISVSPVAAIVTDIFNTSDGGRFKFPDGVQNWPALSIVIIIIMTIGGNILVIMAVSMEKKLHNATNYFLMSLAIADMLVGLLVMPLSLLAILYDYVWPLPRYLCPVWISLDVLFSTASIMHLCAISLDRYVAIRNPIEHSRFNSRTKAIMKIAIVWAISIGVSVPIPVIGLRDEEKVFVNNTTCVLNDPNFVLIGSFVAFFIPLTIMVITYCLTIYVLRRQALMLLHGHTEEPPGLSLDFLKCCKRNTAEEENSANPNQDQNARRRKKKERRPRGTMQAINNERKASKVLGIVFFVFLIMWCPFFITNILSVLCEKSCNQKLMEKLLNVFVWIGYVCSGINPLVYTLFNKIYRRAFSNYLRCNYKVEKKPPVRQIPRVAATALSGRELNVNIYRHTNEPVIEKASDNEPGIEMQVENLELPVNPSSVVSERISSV
Sequence of Serotonin 2 (5-HT2) receptor (Homo sapiens) (P41595 whole entry, looked up): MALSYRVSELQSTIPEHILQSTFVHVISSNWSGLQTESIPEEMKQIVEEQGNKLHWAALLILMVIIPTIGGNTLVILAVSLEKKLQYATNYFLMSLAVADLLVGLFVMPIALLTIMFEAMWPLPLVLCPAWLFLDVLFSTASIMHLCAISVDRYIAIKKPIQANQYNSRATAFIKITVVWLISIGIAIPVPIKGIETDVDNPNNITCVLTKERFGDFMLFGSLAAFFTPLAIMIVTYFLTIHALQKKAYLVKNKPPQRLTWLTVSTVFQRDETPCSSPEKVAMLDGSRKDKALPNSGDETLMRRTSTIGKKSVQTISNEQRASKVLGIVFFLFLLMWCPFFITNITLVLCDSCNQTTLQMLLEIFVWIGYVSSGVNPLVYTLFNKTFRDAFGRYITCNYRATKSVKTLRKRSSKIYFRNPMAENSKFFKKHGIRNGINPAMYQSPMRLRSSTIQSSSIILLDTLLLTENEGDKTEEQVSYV

With `CN1CCN(C(=O)C23CC(c4ccccc42)c2ccccc23)CC1`, the inhibition in assay [1] was 0%. The ED50 in assay [2] is greater than 80 mg/kg.
On to `C[C@@H]1CN(CCCNCC23CC(c4ccccc42)c2ccccc23)C[C@@H](C)O1`, for which the Binding affinity in [3] came out at 36 nM; in assay [4] it was 60 nM; in [5] it was 11 nM. For the same compound, in [2], the ED50 was greater than 80 mg/kg.
As to `CN1CCN(C2=Nc3cc(Cl)ccc3Nc3ccccc32)CC1` [CLOZAPINE], the ED50 in assay [6] came to 40 mg/kg.
As to `CC[S+]([O-])c1ncccc1C1(O)CCN(CC23CC(c4ccccc42)c2ccccc23)CC1` (centres undefined), the Binding affinity in [3] was determined as 42 nM; in assay [4], 13 nM; in assay [5], 39 nM. The ED50 in [2] stood at 0.6 mg/kg.
On to `NCC12CC(c3ccccc31)c1ccccc12`, for which the Binding affinity entry in [7] and in assay [8] was “inactive” each time. The ED50 in assay [2] was greater than 80 mg/kg.
As to `CCOC(OCC)C(=O)NC1CCN(CC23CC(c4ccccc42)c2ccc(Cl)cc23)CC1` (centres undefined), the Binding affinity in assay [3] was 25 nM; in assay [4], 76 nM; in [5], 40 nM. Further, the ED50 in [2] was 2.5 mg/kg.
The like results for `CC(C)(C)C1(O)CCN(CC23CC(c4ccccc42)c2ccc(Cl)cc23)CC1` (centres undefined) were, in that order, 5 nM, 7 nM, 1 nM and 0.6 mg/kg.
The like results for `c1cnc(NCCCNCC23CC(c4ccccc42)c2ccccc23)nc1` were, in that order, 265 nM, 132 nM, 227 nM and greater than 80 mg/kg.
The like results for `O[C@@H](c1cccnc1)C1CCN(CC23CC(c4ccccc42)c2ccc(Cl)cc23)CC1` (some centres undefined) were, in that order, 14 nM, 63 nM, 4 nM and 5 mg/kg.
In the case of `c1ccc2c(c1)C1CC2(CNCCCN2CCOCC2)c2ccccc21`, the figures for the Binding affinity in [3], in assay [4] and in assay [5] were 222 nM, 349 nM and 21 nM, respectively. In addition, in [2], the ED50 is greater than 80 mg/kg.
In [9], `c1ccc2c(c1)C1CC2(CN2CCC(N3CCOCC3)CC2)c2ccccc21` came in with an inhibition of 17%. Also, in assay [3], the Binding affinity was determined as 57 nM. In [2], the median effective dose (ED50) was determined as 10 mg/kg.
With `Clc1ccc2c(c1)C1(CN3CCC(Nc4ncccn4)CC3)CC2c2ccccc21` (centres undefined), the Binding affinity in assay [3] was found to be 49 nM; in [4], 351 nM; in assay [5], 2 nM. In assay [2], the ED50 came out at 5 mg/kg.
The like results for `c1ccc(Cn2cncc2CCNCC23CC(c4ccccc42)c2ccccc23)cc1` were, in that order, 101 nM, 610 nM, 84 nM and 80 mg/kg.
Turning to `CN1CCN(CC23CC(c4ccccc42)c2ccccc23)CC1`, the inhibition is 14% in [10] and 18% in assay [11]. Also, the ED50 in assay [2] is greater than 80 mg/kg. The compound further came in with a Binding affinity in assay [5] of 314 nM.

These data come from ChEMBL document CHEMBL1128790, “Putative atypical antipsychotics with mixed dopaminergic (D1, D2) and serotonergic (5HT2) activity: The design evolution of ZD3638” (1995).
